The NIST ThermoML archive (doi:10.1021/je3002514)
Numbers after ± are expanded uncertainties.

Conditions: Crystal; visual observation

SMILES	Normal melting temperature
CCCC[N+](C)(CCCC)CCCC.COS(=O)(=O)[O-] [N,N-dibutyl-N-methyl-1-butanaminium methyl sulfate]	62.0 ± 2 °C
CCCC[P+](C)(CCCC)CCCC.COS(=O)(=O)[O-] [tributylmethylphosphonium methyl sulfate]	38.0 ± 2 °C
